From US11441131B2, “Heparosan synthases and use thereof for saccharide synthesis” (The Regents of the University of California, priority 2019, dated 2022)

How the values were obtained:
His6-PmHS2 = experiment: Donor substrate specificity of GlcNAcT activity (HPLC), His6-PmHS2; assay type: biochemical, Pasteurella multocida; conditions: acceptor GlcAβ2AA
Text: (§1) Donor substrate specificity assays. […] Chromatographic separation and detection were achieved similarly to that described above for kinetics studies.

His6-Δ80PmHS2 = experiment: Donor substrate specificity of GlcNAcT activity (HPLC), His6-Δ80PmHS2; assay type: biochemical, Pasteurella multocida; conditions: acceptor GlcAβ2AA
Text: as §1

[1] = β1-4GlcA-transferase activity of designed mutants; assay type: biochemical

| Molecule | suitability as donor substrate (His6-PmHS2) | suitability as donor substrate (His6-Δ80PmHS2) | β1-4GlcA-transferase activity [1] |
| --- | --- | --- | --- |
| [N-]=[N+]=NC1C(OP(=O)(O)OP(=O)(O)OCC2OC(n3ccc(=O)[nH]c3=O)C(O)C2O)OC(CO)C(O)C1O (stereo not shown) [UDP-GlcN3] | not suitable donor substrates | not suitable donor substrates |  |
| CC(=O)NC1C(OP(=O)(O)OP(=O)(O)OCC2OC(n3ccc(=O)[nH]c3=O)C(O)C2O)OC(CN=[N+]=[N-])C(O)C1O (stereo not shown) [UDP-GlcNAc6N3] | suitable donor substrates | suitable donor substrates |  |
| CC(=O)NC1C(OP(=O)(O)OP(=O)(O)OCC2OC(n3ccc(=O)[nH]c3=O)C(O)C2O)OC(COS(=O)(=O)O)C(O)C1O (stereo not shown) [UDP-GlcNAc6S] | not suitable donor substrates | not suitable donor substrates |  |
| [N-]=[N+]=NCC(=O)N[C@H]1[C@@H](OP(=O)(O)OP(=O)(O)OC[C@H]2O[C@@H](n3ccc(=O)[nH]c3=O)[C@H](O)[C@@H]2O)O[C@H](CO)[C@@H](O)[C@@H]1O [UDP-GlcNAz] | suitable donor substrates | suitable donor substrates |  |
| O=c1ccn([C@@H]2O[C@H](COP(=O)(O)OP(=O)(O)O[C@H]3O[C@H](CO)[C@@H](O)[C@H](O)[C@H]3NS(=O)(=O)O)[C@@H](O)[C@H]2O)c(=O)[nH]1 [UDP-GlcNS] | not suitable donor substrates | not suitable donor substrates |  |
| O=C(N[C@H]1[C@@H](OP(=O)(O)OP(=O)(O)OC[C@H]2O[C@@H](n3ccc(=O)[nH]c3=O)[C@H](O)[C@@H]2O)O[C@H](CO)[C@@H](O)[C@@H]1O)C(F)(F)F [UDP-GlcNTFA] | suitable donor substrates | suitable donor substrates |  |
| UDP-GlcNAc6NAcPh | not suitable donor substrates | not suitable donor substrates |  |
| Y176A (protein) MGSSHHHHHHSFEKIYTYNQALEAKLEKDKQTTSITDLYNEVAKSDLGLVKETNSANPLVSIIMTSHNTAQFIEASINSLLLQTYKNIEIIIVDDDSSDNTFEIASRIANTTSKVRVFRLNSNLGTYFAKNTGILKSKGDIIFFQDSDDVCHHERIERCVNILLANKETIAVRCAASRLAPETQHIIKVNNMDYRLGFITLGMHRKVFQEIGFFNCTTKGSDDEFFHRIAKYYGKEKIKNLLLPLYYNTMRENSLFTDMVEWIDNHNIIQKMSDTRQHYATLFQAMHNETASHDFKNLFQFPRIYDALPVPQEMSKLSNPKIPVYINICSIPSRIAQLQRIIGILKNQCDHFHIYLDGYVEIPDFIKNLGNKATVVHCKDKDNSIRDNGKFILLEELIEKNQDGYYITCDDDIIYPSDYINTMIKKLNEYDDKAVIGLHGILFPSRMTKYFSADRLVYSFYKPLEKDKAVNVLGTGTVSFRVSLFNQFSLSDFTHSGMADIYFSLLCKKNNILQICISRPANWLTEDNRDSETLYHQYRDNDEQQTQLIMENGPWGYSSIYPLVKNHPKFTDLIPCLPFYFL |  |  | retained |
| T200A (protein) MGSSHHHHHHSFEKIYTYNQALEAKLEKDKQTTSITDLYNEVAKSDLGLVKETNSANPLVSIIMTSHNTAQFIEASINSLLLQTYKNIEIIIVDDDSSDNTFEIASRIANTTSKVRVFRLNSNLGTYFAKNTGILKSKGDIIFFQDSDDVCHHERIERCVNILLANKETIAVRCAYSRLAPETQHIIKVNNMDYRLGFIALGMHRKVFQEIGFFNCTTKGSDDEFFHRIAKYYGKEKIKNLLLPLYYNTMRENSLFTDMVEWIDNHNIIQKMSDTRQHYATLFQAMHNETASHDFKNLFQFPRIYDALPVPQEMSKLSNPKIPVYINICSIPSRIAQLQRIIGILKNQCDHFHIYLDGYVEIPDFIKNLGNKATVVHCKDKDNSIRDNGKFILLEELIEKNQDGYYITCDDDIIYPSDYINTMIKKLNEYDDKAVIGLHGILFPSRMTKYFSADRLVYSFYKPLEKDKAVNVLGTGTVSFRVSLFNQFSLSDFTHSGMADIYFSLLCKKNNILQICISRPANWLTEDNRDSETLYHQYRDNDEQQTQLIMENGPWGYSSIYPLVKNHPKFTDLIPCLPFYFL |  |  | retained |
| R195A (protein) MGSSHHHHHHSFEKIYTYNQALEAKLEKDKQTTSITDLYNEVAKSDLGLVKETNSANPLVSIIMTSHNTAQFIEASINSLLLQTYKNIEIIIVDDDSSDNTFEIASRIANTTSKVRVFRLNSNLGTYFAKNTGILKSKGDIIFFQDSDDVCHHERIERCVNILLANKETIAVRCAYSRLAPETQHIIKVNNMDYALGFITLGMHRKVFQEIGFFNCTTKGSDDEFFHRIAKYYGKEKIKNLLLPLYYNTMRENSLFTDMVEWIDNHNIIQKMSDTRQHYATLFQAMHNETASHDFKNLFQFPRIYDALPVPQEMSKLSNPKIPVYINICSIPSRIAQLQRIIGILKNQCDHFHIYLDGYVEIPDFIKNLGNKATVVHCKDKDNSIRDNGKFILLEELIEKNQDGYYITCDDDIIYPSDYINTMIKKLNEYDDKAVIGLHGILFPSRMTKYFSADRLVYSFYKPLEKDKAVNVLGTGTVSFRVSLFNQFSLSDFTHSGMADIYFSLLCKKNNILQICISRPANWLTEDNRDSETLYHQYRDNDEQQTQLIMENGPWGYSSIYPLVKNHPKFTDLIPCLPFYFL |  |  | retained |
| L196A (protein) MGSSHHHHHHSFEKIYTYNQALEAKLEKDKQTTSITDLYNEVAKSDLGLVKETNSANPLVSIIMTSHNTAQFIEASINSLLLQTYKNIEIIIVDDDSSDNTFEIASRIANTTSKVRVFRLNSNLGTYFAKNTGILKSKGDIIFFQDSDDVCHHERIERCVNILLANKETIAVRCAYSRLAPETQHIIKVNNMDYRAGFITLGMHRKVFQEIGFFNCTTKGSDDEFFHRIAKYYGKEKIKNLLLPLYYNTMRENSLFTDMVEWIDNHNIIQKMSDTRQHYATLFQAMHNETASHDFKNLFQFPRIYDALPVPQEMSKLSNPKIPVYINICSIPSRIAQLQRIIGILKNQCDHFHIYLDGYVEIPDFIKNLGNKATVVHCKDKDNSIRDNGKFILLEELIEKNQDGYYITCDDDIIYPSDYINTMIKKLNEYDDKAVIGLHGILFPSRMTKYFSADRLVYSFYKPLEKDKAVNVLGTGTVSFRVSLFNQFSLSDFTHSGMADIYFSLLCKKNNILQICISRPANWLTEDNRDSETLYHQYRDNDEQQTQLIMENGPWGYSSIYPLVKNHPKFTDLIPCLPFYFL |  |  | retained |
| I199A (protein) MGSSHHHHHHSFEKIYTYNQALEAKLEKDKQTTSITDLYNEVAKSDLGLVKETNSANPLVSIIMTSHNTAQFIEASINSLLLQTYKNIEIIIVDDDSSDNTFEIASRIANTTSKVRVFRLNSNLGTYFAKNTGILKSKGDIIFFQDSDDVCHHERIERCVNILLANKETIAVRCAYSRLAPETQHIIKVNNMDYRLGFATLGMHRKVFQEIGFFNCTTKGSDDEFFHRIAKYYGKEKIKNLLLPLYYNTMRENSLFTDMVEWIDNHNIIQKMSDTRQHYATLFQAMHNETASHDFKNLFQFPRIYDALPVPQEMSKLSNPKIPVYINICSIPSRIAQLQRIIGILKNQCDHFHIYLDGYVEIPDFIKNLGNKATVVHCKDKDNSIRDNGKFILLEELIEKNQDGYYITCDDDIIYPSDYINTMIKKLNEYDDKAVIGLHGILFPSRMTKYFSADRLVYSFYKPLEKDKAVNVLGTGTVSFRVSLFNQFSLSDFTHSGMADIYFSLLCKKNNILQICISRPANWLTEDNRDSETLYHQYRDNDEQQTQLIMENGPWGYSSIYPLVKNHPKFTDLIPCLPFYFL |  |  | retained |
